Data taken from article PMC3928078, “Ponatinib efficiently kills imatinib-resistant chronic eosinophilic leukemia cells harboring gatekeeper mutant T674I FIP1L1-PDGFRα: roles of Mcl-1 and β-catenin” (Molecular Cancer, 2014).

Target: T1, FIP1L1-PDGFRα (Homo sapiens, UniProt P16234, T674I, form not given)
T1 construct: gene PDGFRA; with Pre-mRNA 3'-end-processing factor FIP1
Type: cell-based
Details: 24 h, 1000 nM, positive control; gatekeeper mutant; stated gain (imatinib resistance)

T1 sequence (P16234 550-1089 T674I limits assumed, form open): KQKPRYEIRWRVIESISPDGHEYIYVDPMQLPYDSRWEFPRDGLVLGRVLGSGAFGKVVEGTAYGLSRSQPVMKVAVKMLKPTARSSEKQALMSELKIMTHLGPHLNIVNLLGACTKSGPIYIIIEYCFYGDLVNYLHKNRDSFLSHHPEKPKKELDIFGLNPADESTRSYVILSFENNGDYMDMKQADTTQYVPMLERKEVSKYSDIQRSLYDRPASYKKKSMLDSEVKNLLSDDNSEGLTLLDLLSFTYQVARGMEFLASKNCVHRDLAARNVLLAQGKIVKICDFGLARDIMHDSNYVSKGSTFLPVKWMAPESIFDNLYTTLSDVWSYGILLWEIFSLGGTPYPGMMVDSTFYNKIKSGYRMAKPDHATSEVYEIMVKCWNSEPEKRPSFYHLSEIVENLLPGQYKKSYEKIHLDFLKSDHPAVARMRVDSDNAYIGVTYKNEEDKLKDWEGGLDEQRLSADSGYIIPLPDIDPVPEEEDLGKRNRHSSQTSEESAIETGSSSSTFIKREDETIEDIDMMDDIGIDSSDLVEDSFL
T1 sequence (Q6UN15 whole entry partner, form open): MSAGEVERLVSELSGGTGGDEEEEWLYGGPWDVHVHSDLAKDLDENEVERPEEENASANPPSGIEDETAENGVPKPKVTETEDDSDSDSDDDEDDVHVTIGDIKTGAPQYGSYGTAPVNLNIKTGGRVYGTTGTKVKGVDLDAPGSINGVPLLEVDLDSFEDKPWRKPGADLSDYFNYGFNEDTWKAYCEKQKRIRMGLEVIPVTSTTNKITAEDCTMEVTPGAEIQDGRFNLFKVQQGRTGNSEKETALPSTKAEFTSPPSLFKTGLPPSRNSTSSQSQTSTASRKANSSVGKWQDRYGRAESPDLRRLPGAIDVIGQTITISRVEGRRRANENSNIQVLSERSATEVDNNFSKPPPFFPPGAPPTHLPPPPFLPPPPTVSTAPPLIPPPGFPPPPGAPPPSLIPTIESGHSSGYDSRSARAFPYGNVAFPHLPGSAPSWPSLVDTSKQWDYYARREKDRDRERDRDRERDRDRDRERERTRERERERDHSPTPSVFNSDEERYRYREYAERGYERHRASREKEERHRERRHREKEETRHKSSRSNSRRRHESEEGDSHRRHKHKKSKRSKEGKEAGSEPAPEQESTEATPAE

CNC(=O)c1cc(Oc2ccc(NC(=O)Nc3ccc(Cl)c(C(F)(F)F)c3)cc2)ccn1 [sorafenib]
immunoblot of phospho-PDGFRα (Y1018) in BaF3 cells: The phosphorylation of T674I FIP1L1-PDGFRα was altered by sorafenib but not imatinib
